Results on 2 compounds are retold here after ChEMBL document CHEMBL5614385, “A peptide-salinomycin conjugate with a bystander effect reduces the stemness characteristics of ovarian cancer cells and enhances drug sensitivity” (Eur J Med Chem, 2024).

Activity calls are given as the source filed them. No cut-off for these calls is given here.

The test system of assay [1] is MCF7. The assay is described as follows: Cytotoxicity against human MCF7 cells assessed as inhibition of cell growth incubated for 72 hrs by CCK8 assay. The class given is functional, cell-based. Particulars: MCF7, 72 h.
The test system of assay [2] is MIA PaCa-2. In words: Cytotoxicity against human MIA PaCa-2 cells assessed as inhibition of cell growth incubated for 72 hrs by CCK8 assay. The class given is functional, cell-based. The note with it: MIA PaCa-2, 72 h.
For assay [3], the system named is CAL-27. In words: Cytotoxicity against human CAL-27 cells assessed as inhibition of cell growth incubated for 72 hrs by CCK8 assay. Type of assay: functional, cell-based. Particulars: CAL-27, 72 h.
The subject of assay [4] is SK-OV-3/CDDP. In words: Cytotoxicity against human SK-OV-3/CDDP cells assessed as inhibition of cell proliferation incubated for 72 hrs by CCK8 assay. The class given is functional, cell-based.
Assay [5] has as its system A-431. The assay is described as follows: Cytotoxicity against human A-431 cells assessed as inhibition of cell growth incubated for 72 hrs by CCK8 assay. The note with it: A-431, 72 h. Type of assay: functional, cell-based.
The subject of assay [6] is MDA-MB-231. The assay is described as follows: Cytotoxicity against human MDA-MB-231 cells assessed as inhibition of cell growth incubated for 72 hrs by CCK8 assay. The class given is functional, cell-based. Particulars: MDA-MB-231, 72 h.
Assay [7] concerns A2780. The assay is described as follows: Antitumor activity against CD44 negative human A2780 cells assessed as reduction in cell viability incubated for 72 hrs by CCK8 assay. The class given is functional, cell-based. Particulars: A2780, 72 h.
The test system of assay [8] is SK-OV-3. The assay is described as follows: Inhibition of tumor sphere formation in agarose-treated human SK-OV-3 cells assessed as fold decrease in number of formed spheres by imaging analysis. The class given is functional.
The test system of assay [9] is MKN-45. The assay is described as follows: Cytotoxicity against human MKN-45 cells assessed as inhibition of cell growth incubated for 72 hrs by CCK8 assay. Particulars: MKN-45, 72 h. The class given is functional, cell-based.
Assay [10] relates to A549. In words: Cytotoxicity against human A549 cells assessed as inhibition of cell growth incubated for 72 hrs by CCK8 assay. Type of assay: functional, cell-based. Particulars: A549, 72 h.
Assay [11] deals with Vascular endothelial growth factor receptor 2 (Homo sapiens) (UniProt P35968). The assay is described as follows: Inhibition of VEGFR2 phosphorylation in human SK-OV-3 cells at 5 uM incubated for 24 hrs by Western blot analysis. The class given is cell-based.
In assay [12] the test system is HeLa. In words: Cytotoxicity against human HeLa cells assessed as inhibition of cell growth incubated for 72 hrs by CCK8 assay. The class given is functional, cell-based.
For assay [13], the system named is SK-OV-3. In words: Inhibition of cell migration in human SK-OV-3 cells at 5 uM incubated for 24 hrs by microscope based wound healing assay. Type of assay: functional.
The subject of assay [14] is SK-OV-3. In words: Inhibition of cell invasion in human SK-OV-3 cells incubated for 24 hrs by crystal violet staining based transwell invasion assay. Type of assay: functional. The note with it: dose 5.0 µM.
Assay [15] relates to DU-145. In words: Cytotoxicity against human DU-145 cells assessed as inhibition of cell growth incubated for 72 hrs by CCK8 assay. The class given is functional, cell-based. Particulars: DU-145, 72 h.
The test system of assay [16] is HCCLM3. The assay is described as follows: Cytotoxicity against human HCCLM3 cells assessed as inhibition of cell growth incubated for 72 hrs by CCK8 assay. The note with it: HCCLM3, 72 h. Type of assay: functional, cell-based.
Assay [17] has as its system SK-OV-3. In words: Antitumor activity against CD44 positive human SK-OV-3 cells assessed as reduction in cell viability incubated for 72 hrs by CCK8 assay. The note with it: SK-OV-3, 72 h. Type of assay: functional, cell-based.
The subject of assay [18] is ACHN. In words: Cytotoxicity against human ACHN cells assessed as inhibition of cell growth incubated for 72 hrs by CCK8 assay. The class given is functional, cell-based.
In assay [19] the test system is SK-OV-3. The assay is described as follows: Inhibition of AKT phosphorylation in human SK-OV-3 cells at 5 uM incubated for 24 hrs by Western blot analysis. The class given is cell-based.
Assay [20] concerns SK-OV-3. The assay is described as follows: Inhibition of tumor sphere formation in agarose-treated human SK-OV-3 cells assessed as decrease in number of formed spheres at 10 nM incubated for 9 days by imaging analysis. The class given is functional, cell-based. Particulars: time 9.0 day.

Sequence of Vascular endothelial growth factor receptor 2 (Homo sapiens) (P35968 whole entry): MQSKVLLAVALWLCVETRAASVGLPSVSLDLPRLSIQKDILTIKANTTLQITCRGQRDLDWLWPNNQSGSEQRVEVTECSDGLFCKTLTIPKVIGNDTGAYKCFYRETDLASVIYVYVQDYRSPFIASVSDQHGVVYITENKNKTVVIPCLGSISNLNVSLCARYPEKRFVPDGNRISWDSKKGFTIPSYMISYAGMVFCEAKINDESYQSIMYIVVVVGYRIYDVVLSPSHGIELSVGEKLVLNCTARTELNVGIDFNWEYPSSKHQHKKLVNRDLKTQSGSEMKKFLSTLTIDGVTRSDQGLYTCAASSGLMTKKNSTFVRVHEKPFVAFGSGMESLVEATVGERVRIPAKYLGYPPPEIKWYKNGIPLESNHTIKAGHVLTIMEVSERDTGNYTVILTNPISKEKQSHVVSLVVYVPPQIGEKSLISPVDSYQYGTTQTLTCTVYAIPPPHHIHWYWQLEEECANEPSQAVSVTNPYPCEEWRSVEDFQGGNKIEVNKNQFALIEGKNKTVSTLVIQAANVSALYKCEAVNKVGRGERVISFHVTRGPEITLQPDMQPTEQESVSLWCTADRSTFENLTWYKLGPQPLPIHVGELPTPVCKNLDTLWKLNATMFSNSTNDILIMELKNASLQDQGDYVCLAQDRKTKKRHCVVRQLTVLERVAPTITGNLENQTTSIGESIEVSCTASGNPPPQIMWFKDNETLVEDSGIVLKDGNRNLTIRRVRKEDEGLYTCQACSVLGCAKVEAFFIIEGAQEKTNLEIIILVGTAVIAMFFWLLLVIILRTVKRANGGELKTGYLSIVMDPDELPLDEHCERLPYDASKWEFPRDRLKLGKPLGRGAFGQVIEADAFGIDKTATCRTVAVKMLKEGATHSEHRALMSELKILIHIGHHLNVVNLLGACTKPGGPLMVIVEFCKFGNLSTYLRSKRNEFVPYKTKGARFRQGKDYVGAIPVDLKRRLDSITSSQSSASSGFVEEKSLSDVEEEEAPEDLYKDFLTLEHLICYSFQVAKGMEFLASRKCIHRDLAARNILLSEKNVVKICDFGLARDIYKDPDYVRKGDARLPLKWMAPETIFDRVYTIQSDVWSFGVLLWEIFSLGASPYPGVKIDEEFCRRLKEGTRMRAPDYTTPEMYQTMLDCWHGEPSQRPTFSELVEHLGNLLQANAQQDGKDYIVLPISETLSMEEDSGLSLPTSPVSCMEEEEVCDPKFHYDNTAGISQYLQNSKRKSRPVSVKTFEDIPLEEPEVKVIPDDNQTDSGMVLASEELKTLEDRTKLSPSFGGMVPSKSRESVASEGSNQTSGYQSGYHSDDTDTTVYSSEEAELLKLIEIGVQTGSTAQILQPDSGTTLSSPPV

For the compound `CC[C@@H](C(=O)[O-])C1CC[C@H](C)C([C@@H](C)[C@H](O)[C@H](C)C(=O)[C@H](CC)C2O[C@]3(C=C[C@@H](NC(=O)CCSSc4ccccc4)[C@]4(CC[C@@](C)(C5CC[C@](O)(CC)[C@H](C)O5)O4)O3)[C@H](C)C[C@@H]2C)O1.[Na+]` (stereo not given in full), the IC50 is 8.23 µM in assay [1]; 1.14 µM in [2]; 3.73 µM in assay [3]; 4.45 µM in assay [4]; 2.95 µM in assay [5]; 0.98 µM in [6]. Also, the half-maximal inhibitory concentration (IC50) in [7] is 0.11 µM; in assay [9] it was 1.47 µM; in [10], 14.4 µM; in assay [12], 3.76 µM; in [15] it was 30.9 µM; in [16], 1.33 µM. Besides, the IC50 in assay [17] was 4.39 µM; in assay [18], 7.37 µM. Moreover, the “fold change (FC)” value in assay [8] is on record as 4.6. In addition, the inhibition result in assay [11], in assay [13] and in assay [19] was “Active” each time. For the same compound, the inhibition result in assay [14] was “Dose-Dependent Effect”.
With `CC(=O)O[C@H]1C(=O)[C@@]2(C)[C@H]([C@H](OC(=O)c3ccccc3)[C@]3(O)C[C@H](OC(=O)[C@H](O)[C@@H](NC(=O)c4ccccc4)c4ccccc4)C(C)=C1C3(C)C)[C@]1(OC(C)=O)CO[C@@H]1C[C@@H]2O`, the inhibition result in [20] is “Active”.
